Source: US11040031B2, “Pyrazole derivatives as MALT1 inhibitors” (Janssen Pharmaceutica NV, priority 2018, dated 2021)
Where two headings read alike, the source gives them in different places.

How the values were obtained:
[1] = tested on: Secretion of IL10 by OCI-LY3 ABC-DLBCL cells; experiment: Human IL10 Mesoscale assay (OCI-LY3); type: cell-based; conditions: read-out: Human IL10 Mesoscale assay (OCI-LY3)
Protocol: (§1) NFKB signaling regulates the secretion of multiple cytokines, including IL6 and IL10. Secretion of the cytokines IL6 and IL10 by TMD8 or OCI-LY3 ABC-DLBCL cells was measured using a mesoscale assay.
(§2) Cell passage number should not exceed 30. Cells should be kept between 0.5-2.5 million cells per mL during culturing and cells should be supplemented every 2-3 days with fresh 50 µM beta-mercaptoenthanol. No beta-mercaptoethanol was used during the mesoscale assay.
(§3) DMSO control wells were used to determine the maximum signal (High Control (HC)). […] Compounds and cells were incubated for 24 h at 37° C. and 5% CO2 (assay volume is 150 μL). After 24 h of incubation 50 μL of the supernatant was transferred to a MSD plate (V-Plex Proinflammation Panel 1 (human) kit, Mesoscale (MSD)) and incubated for 2 h with vigorous shaking (600 rpm) at room temperature. Following incubation, plates were washed 3× with PBS+0.05% Tween-20 and 25 μL detection antibody solution (IL6 & IL10 antibodies in diluent 3 (MSD)) was added per well followed by 2 h of incubation with vigorous shaking (600 rpm) at room temperature. After 3× washes with PBS+0.05% Tween-20, plates were incubated with 150 μL 2× Read Buffer T and read on SECTOR imager.

[2] = tested on: Secretion of IL6 by OCI-LY3 ABC-DLBCL cells; experiment: Human IL6 Mesoscale assay (OCI-LY3); type: cell-based; conditions: read-out: Human IL6 Mesoscale assay (OCI-LY3)
Protocol: as §1, §2, §3

[3] = biological target: T1, full-length MALT1 protein (Strep-MALT1(1-824)-His) (Homo sapiens, UniProt Q9UDY8); experiment: biochemical;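 note: fluorogenic LRSR-AMC substrate cleavage by MALT1, 50 min compound preincubation then 4 h reaction at RT, 11-point dilution from 30 µM, scaled between enzyme-free and untreated enzyme controls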
T1 sequence (Q9UDY8 1-824): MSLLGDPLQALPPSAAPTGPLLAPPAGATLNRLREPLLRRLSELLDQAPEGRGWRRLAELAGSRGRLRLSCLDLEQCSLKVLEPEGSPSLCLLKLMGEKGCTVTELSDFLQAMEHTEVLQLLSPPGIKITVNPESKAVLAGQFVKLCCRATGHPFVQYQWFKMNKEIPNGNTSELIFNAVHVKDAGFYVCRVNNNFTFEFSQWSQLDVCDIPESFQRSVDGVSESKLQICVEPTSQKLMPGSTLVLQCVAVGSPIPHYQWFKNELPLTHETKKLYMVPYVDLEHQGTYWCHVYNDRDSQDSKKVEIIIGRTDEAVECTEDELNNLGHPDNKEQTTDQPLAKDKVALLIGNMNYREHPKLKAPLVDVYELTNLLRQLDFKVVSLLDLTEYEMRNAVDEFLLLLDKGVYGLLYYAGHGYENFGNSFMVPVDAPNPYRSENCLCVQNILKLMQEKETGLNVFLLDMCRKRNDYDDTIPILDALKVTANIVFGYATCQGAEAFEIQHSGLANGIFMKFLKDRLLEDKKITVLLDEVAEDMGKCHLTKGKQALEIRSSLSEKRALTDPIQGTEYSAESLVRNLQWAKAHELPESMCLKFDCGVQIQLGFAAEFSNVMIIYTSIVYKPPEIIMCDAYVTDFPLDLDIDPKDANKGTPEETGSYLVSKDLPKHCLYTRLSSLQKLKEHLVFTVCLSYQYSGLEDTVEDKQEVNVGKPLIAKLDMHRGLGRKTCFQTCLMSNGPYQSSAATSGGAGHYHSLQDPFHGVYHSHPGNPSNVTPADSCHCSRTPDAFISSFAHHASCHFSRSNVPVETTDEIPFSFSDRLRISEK

[4] = OCI-LY3 cells, 24 h incubation, supernatant, MSD V-Plex

Row | SMILES | IC50 [1, 4] [nM] | IC50 [2, 4] [nM] | IC50 [3] [nM] | IC50 ([1]; OCI-Ly3, 24 h) [nM] | IC50 ([2]; OCI-Ly3, 24 h) [nM]
1 | N#Cc1ccc(-n2ncc(C(=O)Nc3cnc(-n4nccn4)c(Cl)c3)c2C(F)(F)F)nc1N [Cpd 140, 1-(6-amino-5-cyanopyridin-2-yl)-N-(5-chloro-6-(2H-1,2,3-triazol-2-yl)pyridin-3-yl)-5-(trifluoromethyl)-1H-pyrazole-4-carboxamide] | 123 | 132 | 58 | – | –
2 | CSc1ccccc1-n1ncc(C(=O)Nc2cnc(-n3nccn3)c(Cl)c2)c1C(F)(F)F [Cpd 137, N-(5-chloro-6-(2H-1,2,3-triazol-2-yl)pyridin-3-yl)-1-(2-(methylthio)phenyl)-5-(trifluoromethyl)-1H-pyrazole-4-carboxamide] | 100 | 123 | 151 | – | –
3 | N#Cc1cc(NC(=O)c2cnn(-c3ccccc3Cl)c2C(F)(F)F)cnc1-n1nccn1 [Cpd 116, 1-(2-chlorophenyl)-N-(5-cyano-6-(2H-1,2,3-triazol-2-yl)pyridin-3-yl)-5-(trifluoromethyl)-1H-pyrazole-4-carboxamide] | 105 | 107 | 117 | – | –
4 | N#Cc1cc(NC(=O)c2cnn(-c3c(F)cc(F)cc3F)c2C(F)(F)F)cnc1-n1nccn1 [Cpd 173, N-(5-cyano-6-(2H-1,2,3-triazol-2-yl)pyridin-3-yl)-5-(trifluoromethyl)-1-(2,4,6-trifluorophenyl)-1H-pyrazole-4-carboxamide] | 95 | 129 | 151 | – | –
5 | Cc1cc(F)ccc1-n1ncc(C(=O)Nc2cc(C#N)c(-n3nccn3)nc2C)c1C(F)(F)F [Cpd 170, N-(5-cyano-2-methyl-6-(2H-1,2,3-triazol-2-yl)pyridin-3-yl)-1-(4-fluoro-2-methylphenyl)-5-(trifluoromethyl)-1H-pyrazole-4-carboxamide] | 380 | 417 | 102 | – | –
6 | N#Cc1cc(NC(=O)c2cnn(-c3ccc(F)c(F)c3F)c2C(F)(F)F)cnc1-n1nccn1 [Cpd 97, N-(5-cyano-6-(2H-1,2,3-triazol-2-yl)pyridin-3-yl)-5-(trifluoromethyl)-1-(2,3,4-trifluorophenyl)-1H-pyrazole-4-carboxamide] | 95 | 151 | 263 | – | –
7 | Nc1nc(-n2ncc(C(=O)Nc3cnc(-n4nccn4)c(C(F)(F)F)c3)c2C(F)(F)F)ccc1F [Cpd 147, N-(6-(2H-1,2,3-triazol-2-yl)-5-(trifluoromethyl)pyridin-3-yl)-1-(6-amino-5-fluoropyridin-2-yl)-5-(trifluoromethyl)-1H-pyrazole-4-carboxamide] | – | – | 69 | 40 | 52
8 | Nc1cccc(-n2ncc(C(=O)Nc3cnc(-n4nccn4)c(Cl)c3)c2C(F)(F)F)n1 [Cpd 180, 1-(6-aminopyridin-2-yl)-N-(5-chloro-6-(2H-1,2,3-triazol-2-yl)pyridin-3-yl)-5-(trifluoromethyl)-1H-pyrazole-4-carboxamide] | 170 | 257 | 219 | – | –
9 | CNc1nc(-n2ncc(C(=O)Nc3cnc(-n4nccn4)c(C#N)c3)c2C(F)(F)F)ccc1F [Cpd 150, N-(5-cyano-6-(2H-1,2,3-triazol-2-yl)pyridin-3-yl)-1-(5-fluoro-6-(methylamino)pyridin-2-yl)-5-(trifluoromethyl)-1H-pyrazole-4-carboxamide] | 204 | 269 | 100 | – | –
10 | Nc1ccnc(-n2ncc(C(=O)Nc3cnc(-n4nccn4)c(Cl)c3)c2C(F)(F)F)c1Cl [Cpd 119, 1-(4-Amino-3-chloropyridin-2-yl)-N-(5-chloro-6-(2H-1,2,3-triazol-2-yl)pyridin-3-yl)-5-(trifluoromethyl)-1H-pyrazole-4-carboxamide] | 148 | 282 | 209 | – | –
11 | Cc1nc(-n2nccn2)c(C#N)cc1NC(=O)c1cnn(-c2ccc(Cl)c(N)n2)c1C(F)(F)F [Cpd 200, 1-(6-amino-5-chloropyridin-2-yl)-N-(5-cyano-2-methyl-6-(2H-1,2,3-triazol-2-yl)pyridin-3-yl)-5-(trifluoromethyl)-1H-pyrazole-4-carboxamide] | 245 | 794 | 275 | – | –
12 | O=C(Nc1cnc(-n2nccn2)c(Cl)c1)c1cnn(-c2ccc(F)c(F)c2Cl)c1C(F)(F)F [Cpd 73, 1-(2-chloro-3,4-difluorophenyl)-N-(5-chloro-6-(2H-1,2,3-triazol-2-yl)pyridin-3-yl)-5-(trifluoromethyl)-1H-pyrazole-4-carboxamide] | 110 | 138 | 234 | – | –

Other lines, results leading:

Row | IC50 [1, 4] [nM] | IC50 [2, 4] [nM] | IC50 [3] [nM] | IC50 ([1]; OCI-Ly3, 24 h) [nM] | IC50 ([2]; OCI-Ly3, 24 h) [nM] | SMILES
13 | 355 | 676 | 22 | – | – | Cc1cnc(N)cc1-n1ncc(C(=O)Nc2cnc(-n3nccn3)c(C#N)c2)c1C(F)(F)F [Cpd 142, 1-(2-amino-5-methylpyridin-4-yl)-N-(5-cyano-6-(2H-1,2,3-triazol-2-yl)pyridin-3-yl)-5-(trifluoromethyl)-1H-pyrazole-4-carboxamide]
14 | 813 | 813 | 170 | – | – | Cc1cc(N)nc(-n2ncc(C(=O)Nc3cnc(-n4nccn4)c(C#N)c3)c2C(F)(F)F)c1 [Cpd 176, 1-(6-amino-4-methylpyridin-2-yl)-N-(5-cyano-6-(2H-1,2,3-triazol-2-yl)pyridin-3-yl)-5-(trifluoromethyl)-1H-pyrazole-4-carboxamide]
15 | – | – | 39 | 263 | 398 | N#Cc1cc(NC(=O)c2cnn(-c3cc(N)ncc3Cl)c2C(F)(F)F)cnc1-n1nccn1 [Cpd 148, 1-(2-amino-5-chloropyridin-4-yl)-N-(5-cyano-6-(2H-1,2,3-triazol-2-yl)pyridin-3-yl)-5-(trifluoromethyl)-1H-pyrazole-4-carboxamide]
16 | 229 | 331 | 141 | – | – | N#Cc1cc(NC(=O)c2cnn(-c3nc(N)ccc3Cl)c2C(F)(F)F)cnc1-n1nccn1 [Cpd 175, 1-(6-amino-3-chloropyridin-2-yl)-N-(5-cyano-6-(2H-1,2,3-triazol-2-yl)pyridin-3-yl)-5-(trifluoromethyl)-1H-pyrazole-4-carboxamide]
17 | 324 | 372 | 158 | – | – | Cc1cc(F)cnc1-n1ncc(C(=O)Nc2cnc(-n3nccn3)c(C#N)c2)c1C(F)(F)F [Cpd 113, N-(5-cyano-6-(2H-1,2,3-triazol-2-yl)pyridin-3-yl)-1-(5-fluoro-3-methylpyridin-2-yl)-5-(trifluoromethyl)-1H-pyrazole-4-carboxamide]
18 | – | – | 38 | 68 | 76 | Cc1cc(C#N)ccc1-n1ncc(C(=O)Nc2cnc(-n3nccn3)c(C#N)c2)c1C(F)(F)F [Cpd 126, 1-(4-cyano-2-methylphenyl)-N-(5-cyano-6-(2H-1,2,3-triazol-2-yl)pyridin-3-yl)-5-(trifluoromethyl)-1H-pyrazole-4-carboxamide]
19 | – | – | 35 | 26 | 46 | N#Cc1cc(NC(=O)c2cnn(-c3ccc(Cl)c(N)n3)c2C(F)(F)F)cnc1-n1nccn1 [Cpd 144, 1-(6-amino-5-chloropyridin-2-yl)-N-(5-cyano-6-(2H-1,2,3-triazol-2-yl)pyridin-3-yl)-5-(trifluoromethyl)-1H-pyrazole-4-carboxamide]
20 | 78 | 66 | 50 | – | – | Cc1cc(Cl)ccc1-n1ncc(C(=O)Nc2cnc(-n3nccn3)c(C#N)c2)c1C(F)(F)F [Cpd 166, 1-(4-chloro-2-methylphenyl)-N-(5-cyano-6-(2H-1,2,3-triazol-2-yl)pyridin-3-yl)-5-(trifluoromethyl)-1H-pyrazole-4-carboxamide]
